Values joined by “and” are separate entries in the source; they are usually repeats but may differ in a detail not shown here. Equal values may be shown once. Read-outs that look alike come from different tables or passages of the source.
Experiments:
E. coli nitroreductase [1] = target: T1, E. coli nitroreductase (Escherichia coli, UniProt P38489); format: biochemical
hDT7 cells = assay: cells; format: cell-based, Chinese hamster; details: read-out: IC50 hDT7
[2] = system: SKOV3 human ovarian carcinoma cells not infected (NR−); assay: cells; format: cell-based
[3] = system: SKOV3 human ovarian carcinoma cells infected with adenovirus expressing E. coli nitroreductase (NR+); assay: Cytotoxicity in SKOV3 cells infected with adenovirus expressing E. coli nitroreductase (NR+), MTT; format: cell-based; details: for IC50: adenovirus NR, 100 pfu/cell; for Ratio of IC50 values (NR−/NR+): SKOV3, 18 hour drug exposure
E. coli nitroreductase [4] = target: T1, E. coli nitroreductase; details: pH 7
T116 cells = assay: cells; format: cell-based, Chinese hamster
F179 cells [5] = assay: cells; details: Cricetulus griseus, read-out: IC50 F179
E. coli nitroreductase [6] = target: T1, E. coli nitroreductase; assay: in vitro; details: pH 7
F179 cells [7] = details: read-out: IC50 F179
[8] = 200 μM compound, 1 mM NADH, 1.8 μg E. coli nitroreductase, 10 mM phosphate buffer pH 7.0, 37° C., 250 μL, UV 340 nm
[9] = 18 hour drug exposure; uninfected cells; read-out: IC50 in SKOV3 NR−
[10] = 18 hour drug exposure, read-out: IC50 in SKOV3 NR+
[11] = Homo sapiens, SK-OV-3, 18 h, read-out: IC50 in SKOV3 NR−
[12] = Homo sapiens, SK-OV-3, 18 h, read-out: IC50 in SKOV3 NR+, 18 hour drug exposure
[13] = Cricetulus griseus, V79, 1 h, read-out: IC50 T116
[14] = Cricetulus griseus, V79, 72 h, read-out: IC50 T116
[15] = read-out: IC50 in SKOV3 NR+, 18 hour drug exposure
[16] = 72 hours drug exposure, human NQO1-expressing cells
[17] = 72 hours drug exposure, E. coli nitroreductase-expressing cells, read-out: IC50 T116
[18] = 72 hours drug exposure, vector-only control cells

T1 sequence (P38489 whole entry): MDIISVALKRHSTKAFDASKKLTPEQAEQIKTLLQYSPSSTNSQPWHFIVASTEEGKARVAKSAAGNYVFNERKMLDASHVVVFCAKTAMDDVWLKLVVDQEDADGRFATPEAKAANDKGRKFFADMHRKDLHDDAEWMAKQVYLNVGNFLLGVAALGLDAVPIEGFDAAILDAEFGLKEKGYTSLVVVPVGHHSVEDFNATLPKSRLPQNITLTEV

O=[N+]([O-])c1ccc([C@@H]2CCN[P@](=O)(N(CCCl)CCCl)O2)cc1 [cis-13c, 2-[Bis(2-chloroethyl)amino]-6-(p-nitrophenyl)-2H-1,3,2-oxazaphosphorinane 2-oxide]
NR Assay vi (initial velocity) (E. coli nitroreductase [1]; [8]): 2.33 nmol/min | IC50 (hDT7 cells): > 100 µM | IC50 [2, 9]: 680 µM | IC50 [3, 10]: 4.5 µM | Ratio of IC50 values (NR−/NR+) [3]: 151 | NR assay t1/2 (half-life of reduction by E. coli nitroreductase) (E. coli nitroreductase [4]): 5.2 min

COc1cc([N+](=O)[O-])ccc1COP(N)(=O)N(CCCl)CCCl (stereo not shown) [Compound 15i, 2-methoxy-4-nitrobenzyl N,N-bis(2-chloroethyl)phosphordiamidate]
NR Assay vi (initial velocity) (E. coli nitroreductase [1]; [8]): 12.56 nmol/min | IC50 [2, 11]: > 1000 µM | IC50 [3, 12]: 1.8 µM | Ratio of IC50 values (NR−/NR+) [3]: >556

NP(=O)(OCc1ccc([N+](=O)[O-])cc1)N(CCCl)CCCl (stereo not shown) [Compound 15c, 4-nitrobenzyl N,N-bis(2-chloroethyl)phosphordiamidate]
NR Assay vi (initial velocity) (E. coli nitroreductase [1]; [8]): 2.31 nmol/min | IC50 (hDT7 cells; Cricetulus griseus, V79, 72 h): 27 µM | Ratio of IC50 values (F179/T116) (T116 cells): 20,833 and >10,000 | IC50 (T116 cells; [13]): 0.01 µM | IC50 (T116 cells; Cricetulus griseus, V79, 1 h, read-out: IC50 in E. coli nitroreductase-expressing T116 cells): 0.01 µM | IC50 (T116 cells; [14]): 0.003 µM | IC50 (T116 cells; Cricetulus griseus, V79, 72 h, read-out: IC50 in E. coli nitroreductase-expressing T116 cells): 0.003 µM | IC50 [2, 11]: > 1000 µM | IC50 [3, 12]: 1.1 µM | Ratio of IC50 values (NR−/NR+) [3]: >909 | IC50 (F179 cells [5]; 1 h): > 100 µM | IC50 (F179 cells [5]; 72 h): 62.5 µM

O=[N+]([O-])c1ccc2c(c1)OP(=O)(N(CCCl)CCCl)NC2 (stereo not shown) [Compound 9b, 7-Nitro-2-[bis(2-chloroethyl)amino]-1,3,2-benzoxazaphosphorinane-2-oxide]
IC50 (hDT7 cells; Cricetulus griseus, V79, 72 h): 48 µM | Ratio of IC50 values (F179/T116) (T116 cells): 1.3 | IC50 (T116 cells; [14]): 48 µM | IC50 [2, 11]: 510 µM | IC50 [3, 12]: 410 µM | Ratio of IC50 values (NR−/NR+) [3]: 1.2 | IC50 (F179 cells [5]; 72 h): 61 µM | half-life (E. coli nitroreductase [6]): 11 min

CC(OP(N)(=O)N(CCCl)CCCl)c1ccc([N+](=O)[O-])cc1 (single isomer, unassigned) [Compound 15d-B, 1-(4-nitrophenyl)ethyl N,N-bis(2-chloroethyl)phosphordiamidate]
NR Assay vi (initial velocity) (E. coli nitroreductase [1]; [8]): 1.65 nmol/min | IC50 ([2]; read-out: IC50 in SKOV3 NR−; 18 hour drug exposure; uninfected cells): > 1000 µM | Ratio of IC50 values (NR−/NR+) [3]: >250 | IC50 [3, 15]: 4 µM

CC(OP(N)(=O)N(CCCl)CCCl)c1ccc([N+](=O)[O-])cc1 (single isomer, unassigned) [Compound 15d-A, 1-(4-nitrophenyl)ethyl N,N-bis(2-chloroethyl)phosphordiamidate]
NR Assay vi (initial velocity) (E. coli nitroreductase [1]; [8]): 2.53 nmol/min | IC50 [2, 11]: > 1000 µM | Ratio of IC50 values (NR−/NR+) [3]: >556 | IC50 [3, 15]: 1.8 µM

NC(=O)c1cc(N2CC2)c([N+](=O)[O-])cc1[N+](=O)[O-] [CB1954, 5-(aziridin-1-yl)-2,4-dinitrobenzamide, reference compound]
IC50 (hDT7 cells; Cricetulus griseus, V79, 72 h): 1.7 µM | IC50 (T116 cells; [13]): 0.306 µM | IC50 (T116 cells; [14]): 0.036 µM | IC50 ([2]; Homo sapiens, SK-OV-3; 18 hour drug exposure; uninfected cells; read-out: IC50 in SKOV3 NR−): 600 µM | IC50 [3, 12]: 4 µM | IC50 (F179 cells [5]; 1 h): > 100 µM | IC50 (F179 cells [5]; 72 h): 254 µM | half-life (E. coli nitroreductase [6]; E. coli): 5 min

NC(=O)c1cc(COP(N)(=O)N(CCCl)CCCl)ccc1[N+](=O)[O-] (stereo not shown) [Compound 15e, 3-carboxamide-4-nitrobenzyl N,N-bis(2-chloroethyl)phosphordiamidate]
NR Assay vi (initial velocity) (E. coli nitroreductase [1]; [8]): 0.38 nmol/min | IC50 [2, 9]: > 1000 µM | IC50 [3, 10]: 41 µM | Ratio of IC50 values (NR−/NR+) [3]: >24

O=[N+]([O-])c1ccc([C@H]2CCO[P@@](=O)(N(CCCl)CCCl)N2)cc1 [cis-13b, 2-[Bis(2-chloroethyl)amino]-4-(p-nitrophenyl)-2H-1,3,2-oxazaphosphorinane 2-oxide]
IC50 (hDT7 cells): > 100 µM | Ratio of IC50 values (F179/T116) (T116 cells): >2.2 | IC50 (T116 cells; read-out: IC50 T116): 45.3 µM | IC50 [2, 9]: > 1000 µM | IC50 [3, 10]: 510 µM | Ratio of IC50 values (NR−/NR+) [3]: >2 | NR assay t1/2 (half-life of reduction by E. coli nitroreductase) (E. coli nitroreductase [4]): 11.9 min | IC50 (F179 cells [7]): > 100 µM

COc1cc(COP(N)(=O)N(CCCl)CCCl)ccc1[N+](=O)[O-] (stereo not shown) [Compound 15h, 3-methoxy-4-nitrobenzyl N,N-bis(2-chloroethyl)phosphordiamidate]
NR Assay vi (initial velocity) (E. coli nitroreductase [1]; [8]): 4.40 nmol/min | IC50 [2, 11]: 910 µM | IC50 [3, 12]: 3.1 µM | Ratio of IC50 values (NR−/NR+) [3]: 294

COC(=O)c1cc(COP(N)(=O)N(CCCl)CCCl)ccc1[N+](=O)[O-] (stereo not shown) [Compound 15f, 3-methoxycarbonyl-4-nitrobenzyl N,N-bis(2-chloroethyl) phosphordiamidate]
NR Assay vi (initial velocity) (E. coli nitroreductase [1]; [8]): 0.30 nmol/min | IC50 [2, 9]: 400 µM | IC50 [3, 10]: 2.1 µM | Ratio of IC50 values (NR−/NR+) [3]: 190

O=[N+]([O-])c1ccc2c(c1)NP(=O)(N(CCCl)CCCl)OC2 (stereo not shown) [Compound 9c, 7-Nitro-2-[bis(2-chloroethyl)amino]-3,1,2-benzoxazaphosphorinane-2-oxide]
NR Assay vi (initial velocity) (E. coli nitroreductase [1]; [8]): 1.63 nmol/min | IC50 (hDT7 cells; Cricetulus griseus, V79, 72 h): > 100 µM | Ratio of IC50 values (F179/T116) (T116 cells): >33 | IC50 (T116 cells; [14]): 3 µM | IC50 [2, 11]: 540 µM | IC50 [3, 12]: 55 µM | Ratio of IC50 values (NR−/NR+) [3]: 9.8 | IC50 (F179 cells [5]; 72 h): > 100 µM | half-life (E. coli nitroreductase [6]): 13 min

O=[N+]([O-])c1ccc([C@@H]2CCN[P@](=O)(N(CCCl)CCCl)O2)cc1 [trans-13c, 2-[Bis(2-chloroethyl)amino]-6-(p-nitrophenyl)-2H-1,3,2-oxazaphosphorinane 2-oxide]
NR Assay vi (initial velocity) (E. coli nitroreductase [1]; pH 7): 3.54 nmol/min | IC50 (hDT7 cells; [16]): > 100 µM | Ratio of IC50 values (F179/T116) (T116 cells): 22,519 | Ratio of IC50 values (F179/T116) (T116 cells; 1 hour drug exposure): >602 | IC50 (T116 cells; 1 hour drug exposure, read-out: IC50 T116): 0.166 µM | IC50 (T116 cells; [17]): 0.027 µM | IC50 ([2]; read-out: IC50 in SKOV3 NR−): > 1000 µM | IC50 [3, 10]: 5 µM | Ratio of IC50 values (NR−/NR+) [3]: >200 | NR assay t1/2 (half-life of reduction by E. coli nitroreductase) (E. coli nitroreductase [4]): 3.9 min | IC50 (F179 cells [7]; 1 hour drug exposure): > 100 µM

NP(=O)(OCc1ccccc1[N+](=O)[O-])N(CCCl)CCCl (stereo not shown) [Compound 15a, 2-nitrobenzyl N,N-bis(2-chloroethyl)phosphordiamidate]
NR Assay vi (initial velocity) (E. coli nitroreductase [1]; [8]): 0.46 nmol/min | IC50 [2, 11]: 950 µM | IC50 [3, 12]: 90 µM | Ratio of IC50 values (NR−/NR+) [3]: 11

O=[N+]([O-])c1ccc([C@H]2CCN[P@@](=O)(N(CCCl)CCCl)N2)cc1 [cis-13d, 2-[Bis(2-chloroethyl)amino]-4-(p-nitrophenyl)-2H-1,3,2-diazaphosphorinane 2-oxide]
IC50 (hDT7 cells): 46.8 µM | Ratio of IC50 values (F179/T116) (T116 cells): 12.3 | IC50 (T116 cells; read-out: IC50 T116): 4.6 µM | NR assay t1/2 (half-life of reduction by E. coli nitroreductase) (E. coli nitroreductase [4]): 6.4 min | IC50 (F179 cells [7]): 56.8 µM

O=[N+]([O-])c1ccc2c(c1)NP(=O)(N(CCCl)CCCl)NC2 (stereo not shown) [Compound 9d, 7-Nitro-2-[bis(2-chloroethyl)amino]-1,3,2-benzodiazaphosphorinane-2-oxide]
IC50 (hDT7 cells; Cricetulus griseus, V79, 72 h): > 100 µM | Ratio of IC50 values (F179/T116) (T116 cells): ˜1 | IC50 (T116 cells; [14]): > 100 µM | IC50 (F179 cells [5]; 72 h): > 100 µM | half-life (E. coli nitroreductase [6]): 7.8 min

NP(=O)(OCc1cccc([N+](=O)[O-])c1)N(CCCl)CCCl (stereo not shown) [Compound 15b, 3-nitrobenzyl N,N-bis(2-chloroethyl)phosphordiamidate]
NR Assay vi (initial velocity) (E. coli nitroreductase [1]; [8]): 1.23 nmol/min | IC50 [2, 11]: 820 µM | IC50 [3, 12]: 240 µM | Ratio of IC50 values (NR−/NR+) [3]: 3.4

O=[N+]([O-])c1ccc([C@H]2CCN[P@@](=O)(N(CCCl)CCCl)N2)cc1 [trans-13d, 2-[Bis(2-chloroethyl)amino]-4-(p-nitrophenyl)-2H-1,3,2-diazaphosphorinane 2-oxide]
IC50 (hDT7 cells; [16]): > 100 µM | Ratio of IC50 values (F179/T116) (T116 cells): >2.1 | IC50 (T116 cells; [17]): 48.3 µM | NR assay t1/2 (half-life of reduction by E. coli nitroreductase) (E. coli nitroreductase [4]): 4.2 min | IC50 (F179 cells [7]; [18]): > 100 µM

Cc1cc(COP(N)(=O)N(CCCl)CCCl)ccc1[N+](=O)[O-] (stereo not shown) [Compound 15g, 3-methyl-4-nitrobenzyl N,N-bis(2-chloroethyl)phosphordiamidate]
NR Assay vi (initial velocity) (E. coli nitroreductase [1]; [8]): 1.61 nmol/min | IC50 [2, 11]: 510 µM | IC50 [3, 12]: 3.3 µM | Ratio of IC50 values (NR−/NR+) [3]: 155

O=[N+]([O-])c1ccc([C@H]2CCO[P@@](=O)(N(CCCl)CCCl)N2)cc1 [trans-13b, 2-[Bis(2-chloroethyl)amino]-4-(p-nitrophenyl)-2H-1,3,2-oxazaphosphorinane 2-oxide]
IC50 (hDT7 cells; [16]): > 100 µM | Ratio of IC50 values (F179/T116) (T116 cells): >1.9 | IC50 (T116 cells; [17]): 51.5 µM | IC50 ([2]; read-out: IC50 in SKOV3 NR−): 820 µM | IC50 [3, 10]: 250 µM | Ratio of IC50 values (NR−/NR+) [3]: 3.3 | NR assay t1/2 (half-life of reduction by E. coli nitroreductase) (E. coli nitroreductase [4]): 2.9 min | IC50 (F179 cells [7]; [18]): > 100 µM
